According to US20080311231A1, “Broad Spectrum Non-Traditional Preservative System” (priority 2005, published 2008):

Columns and labels:
Format in all cases: cell-based
E. coli [1] = assay: Method B, Symrise oil/water cream base (Example 5); details: 0.2% w/w in Symrise oil/water cream; 10^7 CFU/gm; 37° C., 24 hour
Method: (§1) Activity of lower concentration of Symdiol™ (0.2% w/w) with organic acids was measured. The cream base used in this study was supplied by Symrise Corporation. This base is an oil/water base.
(§2) Method of evaluation: Method B was used for this test. Method B: Same as described in Method A except a higher inoculum was used. A 100 μL inoculum containing 10^7 CFU of test organism was added to each 1 gm of cream and incubated at 37° C. Microbial growth measured as CFU was counted after 24 hour incubation at 37° C.

S. aureus [2] = assay: Method B, Symrise oil/water cream base (Example 5); details: 0.2% w/w in Symrise oil/water cream; 10^7 CFU/gm; 37° C., 24 hour
Method: as §1, §2

P. aeruginosa [3] = assay: Method B, Symrise oil/water cream base (Example 5); details: 0.2% w/w in Symrise oil/water cream; 10^7 CFU/gm; 37° C., 24 hour
Method: as §1, §2

C. albicans [4] = assay: Method C, oil/water base incubated at 30° C. (Examples 7 and 8); details: 10^7 cfu/gm, 24 hours
Method: Evaluation of the effect of various preservative compositions incorporated in an oil/water base against C. albicans (yeast) incubated at 30° C. Yeast and fungi grow optimally at 30° C. and therefore the efficacy of the preservative was evaluated at this temperature.
Method of evaluation: Method C: Same as Method B except that incubation was at 30° C. and subculturing is done on Sabouraud agar.
The following preservatives at 1.0% and 0.5% concentrations were added to the cream. C. albicais at 10^7 cfu/gm base was added to the base and incubated at 30° C. for 24 hours.
Efficacy of preservatives incorporated in the oil/water base and inoculated with the yeast C. albicans and fungus Aspergillus niger.
The cream base and the cream containing the preservatives were inoculated with 10^7 cfu of C. albicans/gm and 105 cfu of Aspergillus niger/gm; and incubated at 30° C. for 24 hours and 48 hours.
Method of Evaluation: Testing was done using Method C.

C. albicans [5] = assay: Method B, Symrise oil/water cream base (Examples 5 and 6); details: for Colony counts (CFU/gm) C. albicans: 0.2% w/w in Symrise oil/water cream, 10^7 CFU/gm
Method: Activity of lower concentration of Symdiol™ (0.2% w/w) with organic acids was measured. The cream base used in this study was supplied by Symrise Corporation. This base is an oil/water base. […] Method of evaluation: Method B was used for this test. Method B: Same as described in Method A except a higher inoculum was used. […] Microbial growth measured as CFU was counted after 24 hour incubation at 37° C. The cream base used in this study was supplied by Symrise Corporation. This base is an oil/water base. […] Method of evaluation: Method B was used for this test with C. albicans as test organism.

P. aeruginosa [6] = assay: Efficacy of preservatives against higher concentrations of P. aeruginosa (Example 4); details: 10^7 cfu per gm cream, 37° C.
Method: (§3) Method of evaluation—Method A: 500 μl or 250 μl of each of the following preservatives was added to 49.5/49.75 gm of the cream base to obtain the desired concentrations for testing as in Table 3, and mixed well. 1.0 gm of this base+preservative formulation was dispensed into several culture tubes and each tube was inoculated with 10 μl of culture containing 10^5 cfu (colony forming units) of test organism. The tubes were incubated at room temperature. After 24 hours the tubes were removed and 9 ml of drug inactivating medium was added and mixed. After making another dilution (1:10) with drug inactivating medium, a 0.5 ml aliquot was subcultured on to a TSA plate. Colony counts were measured after 24 hours incubation at 37° C.
(§4) Evaluation of the synergistic activity of octanediol and AHA combinations against higher concentrations of P. aeruginosa. Since 0.5% Octanediol kills 100% of P. aeruginosa at a concentration of 10^5 cfu/gm, the test was repeated with this organism at 10^7 cfu/gm.
Method of evaluation: Same as described in Method A except a higher inoculum was used. A 100 μl inoculum containing 10^7 cfu of P. aeruginosa was added to each 1 gm of cream and incubated at 37° C.

E. coli [7] = assay: Preservative activity in cream base, Method A (Example 3); details: 10^5 cfu inoculum, room temperature, 24 hours
Method: as §3
(§5) Result: Preservative activity of various creams utilizing a concentration of test organism of 10^5 cfu/gm and incubation at room temperature is shown in Table 4.

S. aureus [8] = assay: as above; details: 10^5 cfu inoculum, room temperature, 24 hours
Method: as §3, §5

C. albicans [9] = assay: as above; details: 10^5 cfu inoculum, room temperature, 24 hours
Method: as §3, §5

P. aeruginosa [10] = assay: Preservative activity in cream, Method A inoculum (text of Example 4); details: 0.5% Octanediol; organism at 10^5 cfu/gm (so in the source)
Method: as §3, §4

[11] = printed as 20% (single ingredient)

Row | SMILES | Colony counts (CFU)/gm E. coli (E. coli [1]) | Colony counts (CFU)/gm S. aureus (S. aureus [2]) | Colony counts (CFU/gm) P. aeruginosa (P. aeruginosa [3]) | C. albicans (CFU/gm cream) (C. albicans [4]; [11]) | Colony counts (CFU/gm) C. albicans (C. albicans [5]; 37° C., 24 hour) | Colony counts (CFU/gm) C. albicans (C. albicans [5]; Table 7, Method B) | Colony counts (CFU/gm) P. aeruginosa (P. aeruginosa [6]; 0.2% w/w in cream) | Colony counts (CFU)/gm E. coli (E. coli [7]; 0.2% w/w in cream) | Colony counts (CFU)/gm S. aureus (S. aureus [8]; 0.2% w/w in cream) | Colony counts (CFU/gm) C. albicans (C. albicans [9]; 0.2% w/w in cream) | other results
1 | CC(O)C(=O)O (stereo not drawn) [Lactic acid] | 1.2 × 10^6 CFU/gm | 6.0 × 10^4 CFU/gm | 2.0 × 10^6 CFU/gm | 5 × 10^6 CFU/gm cream | 2.0 × 10^6 CFU/gm | 2.0 × 10^6 CFU/gm | 2.0 × 10^6 CFU/gm | 2.3 × 10^4 CFU/gm | 3.0 × 10^3 CFU/gm | 1.5 × 10^4 CFU/gm | C. albicans (CFU/gm cream) (C. albicans [4]; 0.12% (single ingredient)): 4.2 × 10^6 CFU/gm cream
2 | CCCCCCC(O)CO (stereo not drawn) | – | – | – | – | – | 1.0 × 10^5 CFU/gm | – | – | – | – | kills P. aeruginosa (P. aeruginosa [10]): 100%; C. albicans (CFU/gm cream) (C. albicans [4]; printed as 30% (single ingredient)): 1.4 × 10^5 CFU/gm cream; C. albicans (CFU/gm cream) (C. albicans [4]; printed as 50% (single ingredient)): 0 CFU/gm cream; Colony counts (CFU/gm) P. aeruginosa (P. aeruginosa [6]; 0.5% w/w in cream): 1.6 × 10^3 CFU/gm; Colony counts (CFU)/gm E. coli (E. coli [7]; 0.3% w/w in cream): 5.4 × 10^4 CFU/gm; Colony counts (CFU)/gm E. coli (E. coli [7]; 0.5% w/w in cream): 0 CFU/gm; Colony counts (CFU)/gm S. aureus (S. aureus [8]; 0.3% w/w in cream): 4.0 × 10^4 CFU/gm; Colony counts (CFU)/gm S. aureus (S. aureus [8]; 0.5% w/w in cream): 1.5 × 10^3 CFU/gm; Colony counts (CFU/gm) C. albicans (C. albicans [9]; 0.3% w/w in cream): 2.0 × 10^5 CFU/gm; Colony counts (CFU/gm) C. albicans (C. albicans [9]; 0.5% w/w in cream): 5.2 × 10^2 CFU/gm
3 | O=C(O)CC(O)(CC(=O)O)C(=O)O [Citric acid] | 2.0 × 10^6 CFU/gm | 2.0 × 10^4 CFU/gm | 1.0 × 10^6 CFU/gm | 2.5 × 10^6 CFU/gm cream | 2.0 × 10^6 CFU/gm | 2.0 × 10^6 CFU/gm | 2.5 × 10^6 CFU/gm | 7.3 × 10^4 CFU/gm | 5.0 × 10^4 CFU/gm | 1.0 × 10^5 CFU/gm | activity of the combination against C. albicans in words (conclusion of Example 6) (C. albicans [5]; with a lower concentration of octanediol (0.2% w/w)): enhanced activity
